Values of other authors in patent US20050136109A1, “Extended release tablet formulations of venlafaxine” (Wyeth, priority 2003, published 2005).
Counter-ions that a name gives are not always drawn.

Details: plural daily dosing regimen, immediate release tablets

Vomiting, patients experiencing: about seventeen
nausea, patients experiencing: about forty five
Structure (SMILES): COc1ccc(C(CN(C)C)C2(O)CCCCC2)cc1 (centres unmarked) [venlafaxine hydrochloride, 1-[2-(dimethylamino)-1-(4-methoxyphenyl)ethyl]-cyclo-hexanol]
